# Results from US7615639B2, “1-pyridyl-benzofuro[3,2-b]pyridin-2(1H)-ones” (Tibotec Pharmaceuticals, Ltd., priority 2004, dated 2009).
# pEC50: −log10 of the molar value.
# Test system: HIV
# Assay: Cellular assay: anti-viral activity in HIV-infected MT4 cells (MTT read-out)
# Type: cell-based
# Settings: Human immunodeficiency virus 1, 120 h, five days incubation, MTT cell viability, negative logarithm of EC50 (protection of 50% of cells from cytopathogenic effect of the virus)
# Description: The compounds of the present invention were examined for anti-viral activity in a cellular assay, which was performed according to the following procedure.
# HIV- or mock-infected MT4 cells were incubated for five days in the presence of various concentrations of the inhibitor. At the end of the incubation period, the replicating virus in the control cultures has killed all HIV-infected cells in the absence of any inhibitor. Cell viability was determined by measuring the concentration of MTT, a yellow, water soluble tetrazolium dye that is converted to a purple, water insoluble formazan in the mitochondria of living cells only. Upon solubilization of the resulting formazan crystals with isopropanol, the absorbance of the solution was monitored at 540 nm. The values correlate directly to the number of living cells remaining in the culture at the completion of the five day incubation. The inhibitory activity of the compound was monitored on the virus-infected cells and was expressed as EC50 and EC90. These values represent the amount of the compound required to protect 50% and 90%, respectively, of the cells from the cytopathogenic effect of the virus. The toxicity of the compound was measured on the mock-infected cells and was expressed as CC50, which represents the concentration of compound required to inhibit the growth of the cells by 50%. The selectivity index (SI) (ratio CC50/EC50) is an indication of the selectivity of the anti-HIV activity of the inhibitor. Wherever results are reported as e.g. pEC50 or pCC50 values, the result is expressed as the negative logarithm of the result expressed as EC50 or CC50 respectively.
row,Compound,pEC50
1,Cn1c2ccccc2c2c1ccc(=O)n2-c1cc2ccccc2s1 [Compound 6],4.90
2,Cn1c2ccccc2c2c1cc(C#N)c(=O)n2-c1cncnc1 [Compound 11],4.70
3,Cn1c2ccccc2c2c1cc(C#N)c(=O)n2-c1ccc(C#N)nc1 [Compound 14],5.00
4,Cn1ccc2cc(-n3c(=O)ccc4c3c3ccccc3n4C)ccc21 [Compound 17],5.20
5,N#Cc1cc2[nH]c3ccccc3c2n(-c2ccnc(Cl)c2)c1=O [Compound 19],4.80
6,Cn1c2ccccc2c2c1cc(C#N)c(=O)n2-c1ccc2nc(C(F)(F)F)cn2c1 [Compound 21],4.90
7,Cn1c2ccccc2c2c1ccc(=O)n2-c1cnc2ccccc2c1 [Compound 27],5.20
8,Cn1c2ccccc2c2c1cc(C#N)c(=O)n2-c1ccc(F)nc1 [Compound 36],5.10

# The next compounds have a higher pEC50 than those just listed; values first:
row,pEC50,Compound
1,5.30,Cn1c2ccccc2c2c1cc(C#N)c(=O)n2-c1ccnc(C(N)=O)c1 [Compound 20]
2,5.40,"Cn1c2ccc(O)cc2c2c1cc(C#N)c(=O)n2-c1ccc(Cl)nc1 [Compound 43, 1-(6-Chloro-pyridin-3-yl)-8-hydroxy-5-methyl-2-oxo-2,5-dihydro-1H-pyrido[3,2-b]-indole-3-carbonitrile]"
3,5.50,Cn1c2ccccc2c2c1cc(C#N)c(=O)n2-c1ccc(Br)nc1 [Compound 28]
4,5.50,COc1ccc(-n2c(=O)c(C#N)cc3c2c2ccccc2n3C)cn1 [Compound 35]
5,5.60,Cn1c2ccccc2c2c1cc(C#N)c(=O)n2-c1cnc2ccccc2c1 [Compound 9]
6,5.60,N#Cc1cc2[nH]c3ccccc3c2n(-c2ccc(Cl)nc2)c1=O [Compound 26]
7,5.60,COc1ncc(-n2c(=O)c(C#N)cc3c2c2ccccc2n3C)cn1 [Compound 37]
8,6.00,"Cc1ccc(-n2c(=O)c(C#N)cc3c2c2ccccc2n3C)cn1 [Compound 32, 5-Methyl-1-(6-methyl-pyridin-3-yl)-2-oxo-2,5-dihydro-1H-pyrido[3,2-b]indole-3-carbonitrile]"
9,6.10,"Cn1c2ccccc2c2c1cc(C#N)c(=O)n2-c1ccc(Cl)nc1 [Compound 7, 1-(6-Chloropyridin-3-yl)-5-methyl-2-oxo-2,5-dihydro-1H-pyrido[3,2-b]indole-3-carbonitrile]"
10,6.10,"Cc1cc(-n2c(=O)c(C#N)cc3c2c2ccccc2n3C)cnc1Cl [Compound 34, 1-(6-Chloro-5-methyl-pyridin-3-yl)-5-methyl-2-oxo-2,5-dihydro-1H-pyrido[3,2-b]-indole-3-carbonitrile]"
